# Reference: ChEMBL document CHEMBL1201862, “PubChem BioAssay data set” (2004)
# “And” between values parts separate entries of the source, which are not always exact repeats. Equal values may be shown once.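 Five compound concentrations were applied to cells in 96-well plates for 48 hours; endpoints were derived by simple linear interpolation of the resulting dose-response curve. GI50 = concentration required for 50% inhibition of growth.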 The source made the active and inactive calls. Cut-off read from the data, not from the text of the source: active = GI50 up to about 1.1 µM and inactive = higher. Non-standard residues stand in square brackets, D forms with d. Residues, ends and D or L forms follow the SMILES beside them. *: point of attachment. NMeF = CN[CH](Cc1ccccc1)C(=O)O; NMeV = CN[CH](C(=O)O)C(C)C; Boc = CC(C)(C)OC(=O)*; OBn = c1ccc(CO*)cc1
# How the values were obtained:
# Experiment in all cases: NCI-60 cell line screen, 48 h
# [1] = system: HCC 2998
# [2] = system: LXFL 529
# [3] = system: U-251
# [4] = system: A549
# [5] = system: MOLT-4
# [6] = system: HOP-92
# [7] = system: CCRF-CEM
# [8] = system: OVCAR-3
# [9] = system: SK-OV-3
# [10] = system: UACC-62
# [11] = system: IGROV-1
# [12] = system: HCT-116
# [13] = system: SF-295
# [14] = system: TK-10
# [15] = system: SF-268
# [16] = system: HOP-62
# [17] = system: DLD-1
# [18] = system: HOP-18
# [19] = system: OVCAR-5
# [20] = system: NCI-H23
# [21] = system: NCI-H460
# [22] = system: UACC-257
# [23] = system: NCI-H226
# [24] = system: SNB-75
# [25] = system: HT-29
# [26] = system: ACHN
# [27] = system: SNB-19
# [28] = system: SW-620
# [29] = system: KM12
# [30] = system: SK-MEL-28
# [31] = system: UO-31
# [32] = system: SF-539
# [33] = system: SK-MEL-5
# [34] = system: OVCAR-8
# [35] = system: COLO 205
# [36] = system: K562
# [37] = system: NCI-H522
# [38] = system: M19-MEL
# [39] = system: HL-60
# [40] = system: SR
# [41] = system: 786-0
# [42] = system: PC-3
# [43] = system: MDA-MB-231
# [44] = system: MDA-N
# [45] = system: T47D
# [46] = system: BT-549
# [47] = system: OVCAR-4
# [48] = system: LOX IMVI
# [49] = system: MCF7
# [50] = system: A498
# [51] = system: SN12C
# [52] = system: MDA-MB-435
# [53] = system: Malme-3M
# [54] = system: HCT-15
# [55] = system: Hs-578T
# [56] = system: RPMI-8226
# [57] = system: DU-145
# [58] = system: NCI/ADR-RES
# [59] = system: RXF 393
# [60] = system: SK-MEL-2
# [61] = system: CAKI-1
# [62] = system: M14
# [63] = system: EKVX
# [64] = system: DMS-273
# [65] = system: DMS-114
smiles,measurement,setting,value
COc1ccc(/C=N/NC(=O)c2sc(=S)n(-c3ccccc3)c2N)cc1,GI50,[1],73.5 µM (inactive)
same,GI50,[2],51.2 µM (inactive)
same,GI50,[3],66.2 µM (inactive)
same,GI50,[4],> 100 µM (inactive)
same,GI50,[5],> 100 µM (inactive)
same,GI50,[6],9.51 µM (inactive)
same,GI50,[7],> 100 µM (inactive)
same,GI50,[8],83.9 µM (inactive)
same,GI50,[9],11.2 µM (inactive)
same,GI50,[10],89.1 µM (inactive)
same,GI50,[11],> 100 µM (inactive)
same,GI50,[12],91.6 µM (inactive)
same,GI50,[13],19.8 µM (inactive)
same,GI50,[14],7.14 µM (inactive)
same,GI50,[15],21.4 µM (inactive)
same,GI50,[16],22.2 µM (inactive)
same,GI50,[17],> 100 µM (inactive)
same,GI50,[18],39.4 µM (inactive)
same,GI50,[19],> 100 µM (inactive)
same,GI50,[20],> 100 µM (inactive)
same,GI50,[21],6.04 µM (inactive)
same,GI50,[22],> 100 µM (inactive)
same,GI50,[23],> 100 µM (inactive)
same,GI50,[24],1.6 µM (inactive)
same,GI50,[25],73.8 µM (inactive)
same,GI50,[26],20.7 µM (inactive)
same,GI50,[27],28.1 µM (inactive)
same,GI50,[28],> 100 µM (inactive)
same,GI50,[29],7.85 µM (inactive)
same,GI50,[30],33.1 µM (inactive)
same,GI50,[31],> 100 µM (inactive)
same,GI50,[32],6.92 µM (inactive)
same,GI50,[33],71.4 µM (inactive)
same,GI50,[34],44.7 µM (inactive)
same,GI50,[35],> 100 µM (inactive)
same,GI50,[36],1.48 µM (inactive)
same,GI50,[37],42.1 µM (inactive)
same,GI50,[38],> 100 µM (inactive)
same,GI50,[39],> 100 µM (inactive)
same,GI50,[40],> 100 µM (inactive)
NC(Cc1c[nH]c(I)n1)C(=O)O (stereo not drawn),GI50,[41],> 100 µM (inactive)
same,GI50,[1],34.9 µM (inactive)
same,GI50,[42],> 100 µM (inactive)
same,GI50,[43],> 100 µM (inactive)
same,GI50,[44],> 100 µM (inactive)
same,GI50,[3],> 100 µM (inactive)
same,GI50,[45],90.6 µM (inactive)
same,GI50,[4],> 100 µM (inactive)
same,GI50,[46],43.4 µM (inactive)
same,GI50,[5],> 100 µM (inactive)
same,GI50,[47],49.9 µM (inactive)
same,GI50,[48],> 100 µM (inactive)
same,GI50,[6],25.6 µM (inactive)
same,GI50,[7],22.1 µM (inactive)
same,GI50,[49],41.4 µM (inactive)
same,GI50,[8],32.4 µM (inactive)
same,GI50,[9],> 100 µM (inactive)
same,GI50,[10],> 100 µM (inactive)
same,GI50,[11],67 µM (inactive)
same,GI50,[50],> 100 µM (inactive)
same,GI50,[51],> 100 µM (inactive)
same,GI50,[52],> 100 µM (inactive)
same,GI50,[12],81.5 µM (inactive)
same,GI50,[13],> 100 µM (inactive)
same,GI50,[14],> 100 µM (inactive)
same,GI50,[53],17.7 µM (inactive)
same,GI50,[54],46.2 µM
same,GI50,[15],84.9 µM (inactive)
same,GI50,[16],> 100 µM (inactive)
same,GI50,[19],> 100 µM (inactive)
same,GI50,[20],81.3 µM (inactive)
same,GI50,[21],> 100 µM (inactive)
same,GI50,[55],23.8 µM (inactive)
same,GI50,[56],> 100 µM (inactive)
same,GI50,[22],41.1 µM (inactive)
same,GI50,[23],> 100 µM (inactive)
same,GI50,[24],25.6 µM (inactive)
same,GI50,[25],> 100 µM (inactive)
same,GI50,[57],> 100 µM (inactive)
same,GI50,[26],> 100 µM (inactive)
same,GI50,[27],> 100 µM (inactive)
same,GI50,[28],30 µM (inactive)
same,GI50,[29],> 100 µM (inactive)
same,GI50,[58],37.1 µM (inactive)
same,GI50,[59],45.2 µM (inactive)
same,GI50,[30],74.1 µM (inactive)
same,GI50,[60],> 100 µM (inactive)
same,GI50,[31],> 100 µM (inactive)
same,GI50,[32],37.4 µM (inactive)
same,GI50,[33],82.2 µM (inactive)
same,GI50,[61],29.3 µM (inactive)
same,GI50,[34],81.5 µM (inactive)
same,GI50,[35],> 100 µM (inactive)
same,GI50,[62],> 100 µM (inactive)
same,GI50,[36],53.6 µM (inactive)
same,GI50,[63],42.7 µM (inactive)
same,GI50,[37],24.3 µM (inactive)
same,GI50,[39],2.27 µM (inactive)
same,GI50,[40],34.4 µM (inactive)
O=C1C=C[C@@]23C[C@@H](NC4=C2C2=NCCc5c[nH]c(c52)C4=O)SC3=C1,GI50,[4],14.6 µM (inactive)
same,GI50,[49],3.82 µM (inactive)
same,GI50,[18],16.7 µM (inactive)
same,GI50,[20],3.49 µM (inactive)
same,GI50,[24],19.8 µM (inactive)
same,GI50,[57],18.2 µM (inactive)
same,GI50,[28],3.15 µM (inactive)
same,GI50,[36],4.74 µM (inactive)
same,GI50,[38],2.03 µM (inactive)
CC(C)C(NC(=O)OC(C)(C)C)C(=O)N(C)C(Cc1ccccc1)C(=O)N(C)C(C(=O)OCc1ccccc1)C(C)C (stereo not drawn) (Boc-Val-[NMeF]-[NMeV]-OBn; configuration not given here),GI50,[41],> 100 µM (inactive)
same,GI50,[1],> 100 µM (inactive)
same,GI50,[3],82.2 µM (inactive) and 43.8 µM (inactive)
same,GI50,[4],39.5 µM (inactive) and 46.8 µM (inactive)
same,GI50,[64],34.1 µM (inactive) and 33.8 µM (inactive)
same,GI50,[9],> 100 µM (inactive)
same,GI50,[10],81.8 µM (inactive)
same,GI50,[11],91.2 µM (inactive)
same,GI50,[12],40 µM (inactive) and 28.4 µM (inactive)
same,GI50,[13],17.6 µM (inactive) and 34.6 µM (inactive)
same,GI50,[14],> 100 µM (inactive)
same,GI50,[53],> 100 µM (inactive)
same,GI50,[54],67.1 µM and 79.3 µM
same,GI50,[15],> 100 µM (inactive)
same,GI50,[16],85.9 µM (inactive)
same,GI50,[20],37.1 µM (inactive) and 68.5 µM (inactive)
same,GI50,[21],39 µM (inactive) and 41 µM (inactive)
same,GI50,[23],> 100 µM (inactive) and 73.5 µM (inactive)
same,GI50,[28],75.2 µM (inactive)
same,GI50,[30],> 100 µM (inactive)
same,GI50,[31],85.3 µM (inactive) and 53.1 µM (inactive)
same,GI50,[33],15.4 µM (inactive)
same,GI50,[34],74.6 µM (inactive) and 70.5 µM (inactive)
same,GI50,[35],37.7 µM (inactive) and 44.2 µM (inactive)
same,GI50,[62],59.3 µM (inactive) and 94.4 µM (inactive)
same,GI50,[65],29.4 µM (inactive) and 30.5 µM (inactive)
same,GI50,[63],> 100 µM (inactive) and 62.1 µM (inactive)
same,GI50,[37],12.2 µM (inactive) and 22.8 µM (inactive)
same,GI50,[39],33.4 µM (inactive) and 19.5 µM (inactive)
same,GI50,[40],27.9 µM (inactive) and 22.6 µM (inactive)
